Laboratory results taken from patent publication US5463052A, “Method for producing benzylidene derivatives” (Shionogi & Co., Ltd., priority 1993, dated 1995).

Columns and labels:
Type in all cases: cell-based
[1] = tested on: production of IL-1 in THP-1 cells; assay: inhibitory activity against the production of IL-1 under LPS stimulation in THP-1 cells; settings: Homo sapiens, read-out: L-1 (THP-1) IC50
Text: (§1) These benzylidene derivatives of the formula III can be prepared in a conventional manner, for example, according to the following reaction scheme. [drawing 5] In the reaction scheme above, R is a as defined above and R^3 is hydroxy-protecting group in EP patent application No. 93308369.3 (Publication No. 595546) corresponding to U.S. patent application No. 08/142,146. Thus, hydroxy-protected 3,5-di-tert-butyl-4-hydroxybenzaldehyde 4 is reacted with γ-sultam derivative 2 under a conditions for aldol reaction to obtain an aldol addition compound 5. The compound […], when deprotected and dehydrated in the presence of an acid, gives the objective benzylidene derivative 3' as a mixture of stereoisomers in (E)- and (Z) forms, which is then subjected to resolution, when a given isomer is desired.

[2] = tested on: production of LTB4 in rat celiac cells; assay: inhibitory activity against the production of LTB4 in rat celiac cells (Rat PEC)
Text: as §1

[3] = tested on: production of PGE2 in rat synovial membrane cells; assay: inhibitory activity against the production of PGE2 in rat synovial membrane cells (Rat SVC)
Text: as §1

| IC50 [1] [µM] | IC50 [2] [µM] | IC50 [3] [µM] | SMILES |
| --- | --- | --- | --- |
| 21 | 2.8 | < 0.001 | CN1CC/C(=C\c2cc(C(C)(C)C)c(O)c(C(C)(C)C)c2)S1(=O)=O [(E), (E)-5-(3,5-di-tert-Butyl-4-hydroxybenzylidene)-2-methyl-1,2-isothiazolidine-1,1-dioxide] |
| 29 | 1.8 | < 0.001 | CN1CC/C(=C/c2cc(C(C)(C)C)c(O)c(C(C)(C)C)c2)S1(=O)=O [(Z), 5-(3,5-di-tert-butyl-4-hydroxybenzylidene)-2-methyl-1,2-isothiazolidine-1,1-dioxide] |
